# Measured values published in patent US20130096100A1, “DI(ARYLAMINO)ARYL COMPOUND” (ASTELLAS PHARMA INC., priority 2007, published 2013).
# pIC50: −log10 of the molar value.
# Tests used:
# [1] = target: T1, Mutant EGFR (L858R) protein (Homo sapiens, UniProt P00533, L858R); assay: Inhibitory activity against the kinase activity of mutant EGFR (L858R) protein (Test Example 2); assay type: biochemical; conditions: ATP 5 μM, reaction 1 hour, HTRF KinEASE-TK
# T1 construct: purchased Cana Biosciences Inc., Japan (sic; Carna Biosciences)
# Description: (§1) The ATP concentration used was 5 μM. Another reaction solution was prepared to contain the enzyme protein but no test compound (in which the solvent DMSO alone was added at 0.4% in place of the test compound), followed by reaction in the same manner with or without ATP addition. […] The concentration causing 50% inhibition (IC50) was calculated for each test compound by the logistic regression method.
# [2] = test system: human non-small cell lung cancer cell line HCC827 cells (mutant EGFR protein-expressing cells); assay: Inhibitory effect against anchorage-independent cell growth of HCC827 cells (Test Example 4); assay type: cell-based; conditions: 120 h, spheroid plate, 5 days, CellTiter-Glo
# Description: (§2) In a 96-well spheroid plate (Sumilon Celltight Spheroid 96U; Sumitomo Bakelite Co., Ltd., Japan), human non-small cell lung cancer cell line NCI-H2228 cells were seeded at 2000 cells per well in RPMI1640 medium (Invitrogen) containing 10% fetal bovine serum. NCI-H2228 cells are those expressing another EML4-ALK fusion protein, which is different from the EML4-ALK fusion protein v1 because it is encoded by an EML4-ALK fusion polynucleotide whose fusion point on EML4 cDNA is different from that of the EML4-ALK fusion polynucleotide v1, but whose ALK region is the same as that of the EML4-ALK fusion polynucleotide v1. The above NCI-H2228 cells seeded in the plate were cultured overnight under 5% CO2 at 37° C., followed by addition of a test compound (final concentration: 10 μM to 1 nM). As a negative control, DMSO used as a solvent was added at the same concentration as the test compound. Then, the cells were cultured under 5% CO2 at 37° C. for 5 days. A cell counting reagent (CellTiter-Glo™ Luminescent Cell Viability Assay; Promega) was added and agitated for 20 minutes, followed by measurement with a luminometer (ML3000 microtiter plate luminometer; Dynatech Laboratories).
# Evaluation of Inhibitory Effect Against Anchorage-Independent Cell Growth of Human Non-Small Cell Lung Cancer Cell Line HCC827 Cells (Mutant EGFR (with Partial Deletion of Exon 19 in EGFR) Protein-Expressing Cells, American Type Culture Collection)
# Evaluation was performed in the same manner as shown in Test Example 3.
# [3] = test system: human non-small cell lung cancer cell line NCI-H2228 cells (EML4-ALK fusion protein-expressing cells); assay: Inhibitory effect against anchorage-independent cell growth of NCI-H2228 cells (Test Example 3); assay type: cell-based; conditions: 120 h, spheroid plate, 5 days, CellTiter-Glo
# Description: Measurement for anchorage-independent cell growth (colony method, etc) has been known to be a system for investigating the anticancer action (pharmacological effect) of test compounds (Clinical Oncology, second edition, Cancer and Chemotherapy Publishers Inc.). In place of the colony method, there is a following method using spheroid plates for measuring the growth of non-attached cells.
# as §2
# MUSK = target: T2, MUSK (Homo sapiens, UniProt O15146); assay: Inhibitory activity against the kinase activity of MUSK protein (Test Example 7); assay type: biochemical; parameters: purchased Carna Biosciences Inc., Japan; conditions: ATP 10 μM, reaction 1 hour, HTRF KinEASE-TK
# T2 sequence (O15146 24-869): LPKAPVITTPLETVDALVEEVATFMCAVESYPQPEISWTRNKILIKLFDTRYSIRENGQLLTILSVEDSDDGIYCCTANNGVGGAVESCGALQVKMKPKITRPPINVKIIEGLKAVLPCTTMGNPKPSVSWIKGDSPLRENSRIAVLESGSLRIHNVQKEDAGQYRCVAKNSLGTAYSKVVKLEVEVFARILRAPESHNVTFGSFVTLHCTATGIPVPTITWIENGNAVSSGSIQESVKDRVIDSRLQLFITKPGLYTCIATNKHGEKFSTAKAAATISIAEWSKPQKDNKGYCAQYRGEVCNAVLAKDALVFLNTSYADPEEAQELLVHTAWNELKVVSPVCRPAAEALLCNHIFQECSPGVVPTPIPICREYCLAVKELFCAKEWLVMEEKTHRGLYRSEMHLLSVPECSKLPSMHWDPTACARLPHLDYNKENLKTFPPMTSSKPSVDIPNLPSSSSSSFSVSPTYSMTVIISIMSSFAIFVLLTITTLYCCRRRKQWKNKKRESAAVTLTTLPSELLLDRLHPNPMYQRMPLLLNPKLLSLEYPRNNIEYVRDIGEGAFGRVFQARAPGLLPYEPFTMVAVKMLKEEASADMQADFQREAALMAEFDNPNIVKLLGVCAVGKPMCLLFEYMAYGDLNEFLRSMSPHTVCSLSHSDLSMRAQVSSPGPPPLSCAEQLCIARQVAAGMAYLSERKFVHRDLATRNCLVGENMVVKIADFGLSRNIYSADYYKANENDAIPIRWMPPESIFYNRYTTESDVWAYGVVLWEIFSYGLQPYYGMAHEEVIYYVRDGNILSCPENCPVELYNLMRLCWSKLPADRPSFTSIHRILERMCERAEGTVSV
# Description: as §1, with “MUSK protein (Carna Biosciences Inc., Japan) was investigated for its phosphorylation activity toward a peptide substrate by using a kinase activity detection kit (HTRF KinEASE-TK; Cisbio Inc.). […] The ATP” for “The ATP”, “used was 10 μM. Another” for “used was 5 μM. Another”
# T1 sequence (P00533 25-1210 L858R): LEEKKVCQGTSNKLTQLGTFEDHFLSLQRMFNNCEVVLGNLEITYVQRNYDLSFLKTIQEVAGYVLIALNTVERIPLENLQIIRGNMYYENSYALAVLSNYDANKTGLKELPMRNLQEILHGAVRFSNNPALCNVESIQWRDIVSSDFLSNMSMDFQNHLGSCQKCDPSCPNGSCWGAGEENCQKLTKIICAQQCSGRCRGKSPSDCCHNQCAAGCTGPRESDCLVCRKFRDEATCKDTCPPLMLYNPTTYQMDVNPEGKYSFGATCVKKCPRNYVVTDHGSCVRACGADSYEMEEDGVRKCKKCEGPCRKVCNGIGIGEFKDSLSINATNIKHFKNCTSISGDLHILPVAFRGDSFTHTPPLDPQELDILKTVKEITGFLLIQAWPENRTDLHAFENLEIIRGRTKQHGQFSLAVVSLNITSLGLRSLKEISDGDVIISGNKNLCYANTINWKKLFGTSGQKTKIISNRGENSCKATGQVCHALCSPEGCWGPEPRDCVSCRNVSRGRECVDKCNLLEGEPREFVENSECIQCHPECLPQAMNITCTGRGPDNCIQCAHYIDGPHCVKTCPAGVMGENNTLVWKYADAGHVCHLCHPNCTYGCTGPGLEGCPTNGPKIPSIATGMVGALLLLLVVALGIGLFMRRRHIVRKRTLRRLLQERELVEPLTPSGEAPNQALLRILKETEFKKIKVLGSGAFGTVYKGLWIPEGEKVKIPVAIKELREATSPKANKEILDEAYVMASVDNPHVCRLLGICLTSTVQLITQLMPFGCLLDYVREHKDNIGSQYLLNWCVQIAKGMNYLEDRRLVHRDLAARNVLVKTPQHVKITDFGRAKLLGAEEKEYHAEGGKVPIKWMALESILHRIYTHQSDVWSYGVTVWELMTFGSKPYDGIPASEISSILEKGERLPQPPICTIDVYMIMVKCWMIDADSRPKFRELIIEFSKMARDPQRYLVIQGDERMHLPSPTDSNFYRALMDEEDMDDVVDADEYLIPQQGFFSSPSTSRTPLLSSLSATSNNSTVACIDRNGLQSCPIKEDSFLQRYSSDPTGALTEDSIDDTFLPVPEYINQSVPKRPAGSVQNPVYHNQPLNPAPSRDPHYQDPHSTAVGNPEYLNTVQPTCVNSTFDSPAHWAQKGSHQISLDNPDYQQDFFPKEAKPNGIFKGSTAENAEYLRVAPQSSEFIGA
Structure (SMILES),pIC50 [1],pIC50 [2],pIC50 [3],pIC50 (MUSK)
CCNS(=O)(=O)c1ccccc1Nc1ncnc(Nc2ccc(N3CCC(N4CCN(C)CC4)CC3)cc2OC)n1 [Example 123],7.00,6.62,7.52,5.96
COc1cc(N2CCC(N3CCN(C)CC3)CC2)ccc1Nc1ncnc(Nc2ccccc2S(=O)(=O)C(C)C)n1 [Example 23],6.92,6.57,7.15,5.82
